Results taken from patent US20180099931A1 (AbbVie S.à.r.l., priority 2016, published 2018).
Where two headings read alike, the source gives them in different places.

Biological target: T1, F508delCFTR (Homo sapiens, UniProt P13569, DEL508-508)
T1 construct: expressed in transfected cells; host or cells: CFBE41o- human lung-derived epithelial cells (CFBE4lo-F508delCFTR-HRP), doxycycline-inducible
Assay: Cell Surface Expression-Horse Radish Peroxidase (CSE-HRP) Assay;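 for Maximum % activity (with co-corrector): co-corrector and positive control are both the same reference corrector at 2 µM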;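 for Maximum % activity (without co-corrector): percent of the 2 µM on-plate positive control corrector response above DMSO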
Assay type: cell-based
Conditions: for Emax: read-out: Maximum % activity (without co-corrector)

[1] = test compound without co-corrector, maximum at any tested concentration, normalized to on-plate positive control
[2] = test compound without co-corrector, read-out: EC50 (without co-corrector)
[3] = with co-corrector (2 μM of 3-[(2R,4R)-4-({[1-(2,2-difluoro-1,3-benzodioxol-5-yl)cyclopropyl]carbonyl}amino)-7-methoxy-3,4-dihydro-2H-chromen-2-yl]benzoic acid), read-out: EC50 (with co-corrector)
[4] = with co-corrector (2 μM), maximum at any tested concentration, normalized to on-plate positive control
[5] = with co-corrector (2 μM of 3-[(2R,4R)-4-({[1-(2,2-difluoro-1,3-benzodioxol-5-yl)cyclopropyl]carbonyl}amino)-7-methoxy-3,4-dihydro-2H-chromen-2-yl]benzoic acid), maximum at any tested concentration, normalized to on-plate positive control
[6] = CSE-HRP, test compound without co-corrector, read-out: EC50 (without co-corrector)
[7] = CSE-HRP, with co-corrector (2 μM of 3-[(2R,4R)-4-({[1-(2,2-difluoro-1,3-benzodioxol-5-yl)cyclopropyl]carbonyl}amino)-7-methoxy-3,4-dihydro-2H-chromen-2-yl]benzoic acid), read-out: EC50 (with co-corrector)
[8] = CSE-HRP, with co-corrector (2 μM), maximum at any tested concentration, normalized to on-plate positive control
[9] = CSE-HRP, without co-corrector, maximum at any tested concentration, normalized to on-plate positive control
[10] = without co-corrector, maximum at any tested concentration, normalized to on-plate positive control

T1 sequence (P13569 with tags, fused parts or gaps DEL508-508): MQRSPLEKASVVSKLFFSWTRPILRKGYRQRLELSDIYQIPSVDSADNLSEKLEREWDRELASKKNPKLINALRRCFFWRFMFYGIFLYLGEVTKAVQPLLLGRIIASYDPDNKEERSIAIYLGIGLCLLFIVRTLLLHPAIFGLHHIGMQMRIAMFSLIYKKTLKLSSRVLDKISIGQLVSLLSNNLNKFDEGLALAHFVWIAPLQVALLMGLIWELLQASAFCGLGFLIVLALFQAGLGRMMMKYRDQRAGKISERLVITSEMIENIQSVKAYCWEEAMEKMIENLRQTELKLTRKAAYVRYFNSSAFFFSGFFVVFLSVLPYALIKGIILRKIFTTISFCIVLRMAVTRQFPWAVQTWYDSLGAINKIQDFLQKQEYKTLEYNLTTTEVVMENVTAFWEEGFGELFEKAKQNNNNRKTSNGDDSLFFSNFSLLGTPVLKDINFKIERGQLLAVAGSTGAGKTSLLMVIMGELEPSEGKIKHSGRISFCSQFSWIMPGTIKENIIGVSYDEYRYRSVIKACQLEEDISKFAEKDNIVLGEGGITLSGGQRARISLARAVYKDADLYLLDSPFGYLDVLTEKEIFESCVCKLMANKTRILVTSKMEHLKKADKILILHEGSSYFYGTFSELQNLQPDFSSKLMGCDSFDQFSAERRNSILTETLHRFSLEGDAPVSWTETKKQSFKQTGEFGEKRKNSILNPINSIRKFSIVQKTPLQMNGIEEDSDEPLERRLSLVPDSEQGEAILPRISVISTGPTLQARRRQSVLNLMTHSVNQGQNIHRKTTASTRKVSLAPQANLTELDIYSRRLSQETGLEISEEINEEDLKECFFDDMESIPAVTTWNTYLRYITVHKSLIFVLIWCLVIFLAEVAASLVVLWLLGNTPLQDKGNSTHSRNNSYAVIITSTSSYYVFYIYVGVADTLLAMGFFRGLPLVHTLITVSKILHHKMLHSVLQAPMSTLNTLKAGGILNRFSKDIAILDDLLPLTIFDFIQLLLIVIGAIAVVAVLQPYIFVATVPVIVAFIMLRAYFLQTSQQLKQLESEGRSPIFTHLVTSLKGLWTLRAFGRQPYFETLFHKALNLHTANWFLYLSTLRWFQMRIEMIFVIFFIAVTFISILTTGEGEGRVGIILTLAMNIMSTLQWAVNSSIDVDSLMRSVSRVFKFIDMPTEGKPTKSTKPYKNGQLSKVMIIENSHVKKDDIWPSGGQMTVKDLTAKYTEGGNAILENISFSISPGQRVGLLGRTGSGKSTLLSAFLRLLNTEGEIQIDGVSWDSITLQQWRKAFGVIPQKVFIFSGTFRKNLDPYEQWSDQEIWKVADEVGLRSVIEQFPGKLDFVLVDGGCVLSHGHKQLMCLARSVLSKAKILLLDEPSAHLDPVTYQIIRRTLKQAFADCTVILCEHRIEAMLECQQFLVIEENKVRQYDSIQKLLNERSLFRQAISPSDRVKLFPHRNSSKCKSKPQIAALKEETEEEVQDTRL

Row | Compound | Emax [1] | EC50 [2] | EC50 [3] | Maximum % activity (with co-corrector) [4] | Maximum % activity (with co-corrector) [5] | EC50 [6] | EC50 [7] | Maximum % activity (with co-corrector) [8] | Emax [9] | Emax [10] | Maximum % activity (without co-corrector) [9]
1 | COc1ncc(C2CCC2)cc1CN[C@H]1[C@H](C(C)(C)C)[C@@H](C(=O)O)N(C(=O)OC(C)C)[C@H]1c1cccnc1N(C)C [III-224] | > 200% | 1 to 10 µM | 1 to 10 µM | +++ (≥350) | – | – | – | – | – | – | –
2 | CC(C)(C)[C@@H]1[C@@H](NCc2ccccc2OC(F)F)[C@@H](c2ccccc2)N(C(=O)C2CCCCC2)[C@H]1C(=O)O (racemic) [III-7] | < 100% | 1 to 10 µM | 1 to 10 µM | – | +++ (≥350) | – | – | – | – | – | –
3 | COc1cc(C(F)(F)F)ccc1CN[C@H]1[C@H](C(C)(C)C)[C@@H](C(=O)O)N(C(=O)C2CCCCO2)[C@H]1c1cccnc1OC (relative stereo) [II-98] | – | – | – | – | – | 1 to 10 µM | 1 to 10 µM | +++ (≥350) | 100 to 200% | – | –
4 | COc1ccc(C(F)(F)F)cc1CN[C@H]1[C@H](C(C)(C)C)[C@@H](C(=O)O)N(C(=O)C2C3CCCC32)[C@H]1c1ccccc1 (stereo partly shown) [Example I-161] | – | 1 to 10 µM | 1 to 10 µM | +++ (≥350) | – | – | – | – | – | > 200% | –
5 | COc1ccc(C(C)(C)C)cc1CN[C@H]1[C@H](C(C)(C)C)[C@@H](C(=O)O)N(C(=O)[C@@H]2C[C@H]3CC[C@@H]2O3)[C@H]1c1ccccc1 (relative stereo) [Example I-241] | – | 1 to 10 µM | 1 to 10 µM | +++ (≥350) | – | – | – | – | – | > 200% | –
6 | COc1ccc(C(C)(C)C)cc1CN[C@H]1[C@H](C(C)(C)C)[C@@H](C(=O)O)N(C(=O)C2(C)CCc3c(Cl)cccc32)[C@H]1c1ccccc1 (stereo partly shown) [II-367] | 100 to 200% | 1 to 10 µM | 1 to 10 µM | – | +++ (≥350) | – | – | – | – | – | –
7 | COc1ccc(C(F)(F)F)cc1CN[C@H]1[C@H](C(C)(C)C)[C@@H](C(=O)O)N(C(=O)OC(C)C)[C@H]1c1ccccc1C [II-581] | > 200% | 1 to 10 µM | < 1 µM | – | +++ (≥350) | – | – | – | – | – | –
8 | COc1ncc(C2CCC2)cc1CN[C@H]1[C@H](C(C)(C)C)[C@@H](C(=O)O)N(C(=O)[C@@H]2CCCO2)[C@H]1c1ccccc1C [Example I-265] | – | – | – | – | – | 1 to 10 µM | 1 to 10 µM | +++ (≥350) | > 200% | – | –
9 | COc1nc(C(C)(C)C)ccc1CN[C@H]1[C@H](C23CC(C2)C3)[C@@H](C(=O)O)N(C(=O)OC(C)C)[C@H]1c1ccccc1 [Example 70, (2S,3S,4S,5S)-3-(bicyclo[1.1.1]pentan-1-yl)-4-{[(6-tert-butyl-2-methoxypyridin-3-yl)methyl]amino}-5-phenyl-1-{[(propan-2-yl)oxy]carbonyl}pyrrolidine-2-carboxylic acid] | – | 1 to 10 µM | 1 to 10 µM | +++ (≥350) | – | – | – | – | – | 100 to 200% | –
10 | COc1ncc([Si](C)(C)C)cc1CN[C@H]1[C@H](C(C)(C)C)[C@@H](C(=O)O)N(C(=O)C2CCCCC2)[C@H]1c1ccccc1 [Example 47, (2S,3S,4S,5S)-3-tert-butyl-1-(cyclohexanecarbonyl)-4-({[2-methoxy-5-(trimethylsilyl)pyridin-3-yl]methyl}amino)-5-phenylpyrrolidine-2-carboxylic acid] | – | < 1 µM | < 1 µM | – | – | – | – | – | – | – | –
11 | COc1ccc(C(C)(C)C)cc1CN[C@H]1[C@H](C(C)(C)C)[C@@H](C(=O)O)N(C(=O)C2COc3c(cccc3OC)C2)[C@H]1c1ccccc1 (stereo partly shown) [II-402] | > 200% | 1 to 10 µM | < 1 µM | – | +++ (≥350) | – | – | – | – | – | –
12 | COc1ccc(C(C)(C)C)cc1CN[C@H]1[C@H](C(C)(C)C)[C@@H](C(=O)O)N(C(=O)C2(C)CCc3ccccc32)[C@H]1c1ccccc1 (stereo partly shown) [II-368] | 100 to 200% | 1 to 10 µM | 1 to 10 µM | – | +++ (≥350) | – | – | – | – | – | –
13 | COc1cc2ccccc2cc1CN[C@H]1[C@H](C(C)(C)C)[C@@H](C(=O)O)N(C(=O)OC(C)C)[C@H]1c1ccccc1 [II-550] | > 200% | 1 to 10 µM | 1 to 10 µM | – | +++ (≥350) | – | – | – | – | – | –
14 | COc1ccc(C(C)(C)C)cc1CN[C@H]1[C@H](C(C)(C)C)[C@@H](C(=O)O)N(C(=O)C2CCCCO2)[C@H]1c1ccccc1 (stereo partly shown) [II-318] | > 200% | 1 to 10 µM | 1 to 10 µM | – | +++ (≥350) | – | – | – | – | – | –

The next lines start with the values.

Row | Emax [1] | EC50 [2] | EC50 [3] | Maximum % activity (with co-corrector) [4] | Maximum % activity (with co-corrector) [5] | EC50 [6] | EC50 [7] | Maximum % activity (with co-corrector) [8] | Emax [9] | Emax [10] | Maximum % activity (without co-corrector) [9] | Compound
15 | < 100% | 1 to 10 µM | 1 to 10 µM | – | ++ (≥150 and <350) | – | – | – | – | – | – | COc1ncc(C(F)(F)F)cc1CN[C@H]1[C@H](C(C)(C)C)[C@@H](C(=O)O)N(C(=O)[C@H]2CCCCO2)[C@H]1c1cccnc1N(C)C [II-478]
16 | – | – | – | – | – | 1 to 10 µM | < 1 µM | +++ (≥350) | > 200% | – | – | COc1ccc(C(C)C)cc1CN[C@H]1[C@H](C(C)(C)OC)[C@@H](C(=O)O)N(C(=O)C2CCCCC2)[C@H]1c1ccccc1 [II-258]
17 | < 100% | > 10 µM | 1 to 10 µM | – | ++ (≥150 and <350) | – | – | – | – | – | – | COc1cccnc1CN[C@@H]1[C@@H](C(C)(C)C)[C@H](C(=O)O)N(C(=O)C2CCCCC2)[C@@H]1c1ccccc1 (racemic) [III-21]
18 | – | < 1 µM | < 1 µM | +++ (≥350) | – | – | – | – | – | 100 to 200% | – | COc1ncc(C(F)(F)F)cc1CN[C@H]1[C@H](C(C)(C)C)[C@@H](C(=O)O)N(C(=O)C2CCCCC2)[C@H]1c1ccccc1 [Example 12, (2S,3S,4S,5S)-3-tert-butyl-1-(cyclohexanecarbonyl)-4-({[2-methoxy-5-(trifluoromethyl)pyridin-3-yl]methyl}amino)-5-phenylpyrrolidine-2-carboxylic acid]
19 | – | 1 to 10 µM | 1 to 10 µM | +++ (≥350) | – | – | – | – | – | < 100% | – | COc1ncc(C(F)(F)F)cc1CN[C@H]1[C@H](C(C)(C)C)[C@@H](C(=O)O)N(C(=O)[C@H](C)c2ccccc2)[C@H]1c1cccnc1OC [Example I-240]
20 | – | 1 to 10 µM | < 1 µM | +++ (≥350) | – | – | – | – | – | 100 to 200% | – | COc1ncc(C(F)(F)F)cc1CN[C@H]1[C@H](C(C)(C)C)[C@@H](C(=O)O)N(C(=O)C2CCCC(F)(F)C2)[C@H]1c1ccccc1 (stereo partly shown) [Example I-183]
21 | > 200% | 1 to 10 µM | < 1 µM | – | +++ (≥350) | – | – | – | – | – | – | COc1ccc(C(C)(C)C)cc1CN[C@H]1[C@H](C(C)(C)C)[C@@H](C(=O)O)N(C(=O)C2=C(F)CCCC2)[C@H]1c1ccccc1 [II-411]
22 | < 100% | 1 to 10 µM | < 1 µM | +++ (≥350) | – | – | – | – | – | – | – | CC(C)Oc1ccc(Cl)cc1CN[C@H]1[C@H](C(C)(C)C)[C@@H](C(=O)O)N(C(=O)C2CCCCC2)[C@H]1c1ccccc1 [III-124]
23 | – | – | – | – | – | < 1 µM | 1 to 10 µM | +++ (≥350) | < 100% | – | – | COc1ccc(-c2ccc(C#N)cc2)cc1CN[C@H]1[C@H](C(C)(C)C)[C@@H](C(=O)O)N(C(=O)C2CCCCC2)[C@H]1c1ccccc1 [II-289]
24 | – | – | – | – | – | 1 to 10 µM | 1 to 10 µM | +++ (≥350) | 100 to 200% | – | – | COc1ncc(F)cc1CN[C@@H]1[C@@H](C(C)(C)C)[C@H](C(=O)O)N(C(=O)C2CCCCC2)[C@@H]1c1ccccc1 (racemic) [II-30]
25 | – | 1 to 10 µM | 1 to 10 µM | +++ (≥350) | – | – | – | – | – | > 200% | – | COc1ccc(C(C)(C)C)cc1CN[C@H]1[C@H](C(C)(C)C)[C@@H](C(=O)O)N(C(=O)CC2(O)CCCC2)[C@H]1c1ccccc1 [Example I-99]
26 | – | – | – | – | – | 1 to 10 µM | 1 to 10 µM | +++ (≥350) | – | – | + (<100) | COc1ccc(C(C)(C)C)cc1CN[C@H]1[C@H](C(C)(C)C)[C@@H](C(=O)O)N(C(=O)C(C)n2cc(Cl)c(C)n2)[C@H]1c1ccccc1 (single isomer, unassigned) [II-237]
27 | < 100% | 1 to 10 µM | 1 to 10 µM | – | +++ (≥350) | – | – | – | – | – | – | COc1ccc(Cl)cc1CN[C@@H]1[C@@H](C(C)(C)C)[C@H](C(=O)O)N(C(=O)C2CCCCC2)[C@@H]1c1ccccn1 (racemic) [III-61]
28 | – | 1 to 10 µM | 1 to 10 µM | +++ (≥350) | – | – | – | – | – | > 200% | – | COc1ccc(C(C)(C)C)cc1CN[C@H]1[C@H](C(C)(C)C)[C@@H](C(=O)O)N(C(=O)C2CCCS(=O)(=O)C2)[C@H]1c1ccccc1 (stereo partly shown) [Example I-66]
29 | 100 to 200% | 1 to 10 µM | 1 to 10 µM | – | +++ (≥350) | – | – | – | – | – | – | COc1ccc(C(C)(C)C)cc1CN[C@H]1[C@H](C(C)(C)C)[C@@H](C(=O)O)N(C(=O)[C@H]2CCCO2)[C@H]1c1ccccc1 [II-322]
30 | – | – | – | – | – | < 1 µM | < 1 µM | +++ (≥350) | 100 to 200% | – | – | COc1cc(C(F)(F)F)ccc1CN[C@H]1[C@H](C(C)(C)C)[C@@H](C(=O)O)N(C(=O)C2CCCCC2)[C@H]1c1ccccc1OC (stereo in doubt) [II-50]
